Test results as given in article doi:10.1101/2025.06.13.659494v2, “A cell-based degrader assessment platform facilitates discovery of functional NUDT5 PROTACs” (biorxiv, 2026).

Molecular target: T1, NUDT5 (purified) (Homo sapiens, UniProt Q9UKK9)
T1 construct: homodimer
Assay: enzyme-coupled malachite green assay
Assay type: biochemical
Conditions: […] ADP-ribose, pH […] Mg acetate, […] °C

In the case of `COc1cc(-c2nnc(Cn3c(N4CCNCC4)nc4c3c(=O)n(C)c(=O)n4C)o2)ccc1C` [TH10184], the IC50 is reported as “TH10184 showed comparable biochemical inhibition and thermal shift to TH5427”.
